Test results as given in US20210274788A1, “PESTICIDALLY ACTIVE ISOXAZOLINE D[…] AMIDE GROUP AND AN AZETIDINE SULFONE GROUP” (SYNGENTA CROP PROTECTION AG, priority 2018, published 2021).

Tests used:
Type in all cases: in vivo
[1] = tested on: Euschistus heros (Neotropical Brown Stink Bug); assay: Euschistus heros (neotropical brown stink bug), sprayed soybean leaves, N2 nymphs; conditions: 120 h, application rate 200 ppm, 5 days after infestation, read-out: effect in at least one of the two categories (mortality or growth inhibition)
Description: Euschistus heros (Neotropical Brown Stink Bug)
Soybean leaves on agar in 24-well microtiter plates were sprayed with aqueous test solutions prepared from 10,000 ppm DMSO stock solutions. After drying the leaves were infested with N2 nymphs. The samples were assessed for mortality and growth inhibition in comparison to untreated samples 5 days after infestation.

[2] = tested on: Spodoptera littoralis (Egyptian Cotton Leaf Worm); assay: Spodoptera littoralis (Egyptian cotton leaf worm), cotton leaf discs, L1 larvae; conditions: foliar, 72 h, application rate 200 ppm, 3 days after infestation
Description: Spodoptera littoralis (Egyptian Cotton Leaf Worm)
Cotton leaf discs were placed onto agar in 24-well microtiter plates and sprayed with aqueous test solutions prepared from 10,000 ppm DMSO stock solutions. After drying the leaf discs were infested with five L1 larvae. The samples were assessed for mortality, anti-feeding effect, and growth inhibition in comparison to untreated samples 3 days after infestation. Control of Spodoptera littoralis by a test sample is given when at least one of the categories mortality, anti-feedant effect, and growth inhibition is higher than the untreated sample.

[3] = tested on: Plutella xylostella (Diamond Back Moth); assay: Plutella xylostella (diamond back moth), treated artificial diet, eggs; conditions: 192 h, application rate 200 ppm, 8 days after infestation, read-out: effect in at least one of the two categories (mortality or growth inhibition)
Description: Plutella xylostella (Diamond Back Moth)
24-well microtiter plates with artificial diet were treated with aqueous test solutions prepared from 10,000 ppm DMSO stock solutions by pipetting. After drying, Plutella eggs were pipetted through a plastic stencil onto a gel blotting paper and the plate was closed with it. The samples were assessed for mortality and growth inhibition in comparison to untreated samples 8 days after infestation.

CCOCN(C(=O)c1ccc(C2=NO[C@@](c3cc(Cl)c(F)c(Cl)c3)(C(F)(F)F)C2)cc1C)C1CN(S(=O)(=O)C(F)F)C1 [Compound A3, 4-[(5S)-5-(3,5-dichloro-4-fluoro-phenyl)-5-(trifluoromethyl)-4H-isoxazol-3-yl]-N-[1-(difluoromethylsulfonyl)azetidin-3-yl]-N-(ethoxymethyl)-2-methyl-benzamide]
≥ 80%: percent effect (mortality or growth inhibition) at 200 ppm [1] | percent control (mortality, anti-feedant effect or growth inhibition) at 200 ppm [2] | percent effect (mortality or growth inhibition) at 200 ppm [3]
